Values of other authors as cited in patent US11395819B1, “Antiviral and virucidal lung nebulizer compositions and related treatment methods” (priority 2021, dated 2022).
Where a name gives a salt, the structure may show the parent alone.

Experiments:
[1] = tested on: divergent influenza A strains and influenza B strain
[2] = tested on: avian H7N9 influenza virus; conditions: mice
[3] = given by inhalation

CN(C)CCC(c1ccc(Cl)cc1)c1ccccn1 (stereo not drawn) [Chlorpheniramine, chlorpheniramine maleate]
inhibitory activity against influenza [1]: potent inhibitory activity
protection from fatal challenge [2]: protects mice from fatal challenge
bronchodilation [3]: significant bronchodilation
